Experimental data taken from patent publication US9938258B2 (Karyopharm Therapeutics Inc., priority 2012, dated 2018).
Counter-ions that a name gives are not always drawn. Like-named read-outs stand apart in the source and are kept apart here.

Experiments:
MS751 cells = experiment: MTT cell proliferation assay, MS751; assay type: cell-based, human; settings: Homo sapiens
How it was run: (§1)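 Cells were seeded at 5,000-10,000 per well, left to attach overnight, then exposed to eight compound concentrations from 1 nM to 30 μM. After about 4 h with MTT, solubilized formazan was read at 490 nm and percent inhibition versus negative control was calculated.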

3T3 cells = experiment: MTT cell proliferation assay, 3T3; assay type: cell-based, mouse; settings: Mus musculus
How it was run: as §1

Z-138 cells = experiment: Cell cycle arrest (BrdU / 7-AAD flow cytometry); assay type: cell-based; settings: 1 μM for 1, 2 and 3 days
Procedure: Z-138 cells (mantle cell lymphoma) were plated at a density of 1×10^6 cells/well and treated with no drug (DMSO control) or with 1 μM Compound 123 for 1, 2, and 3 days in culture. For each time point, cells were treated with 10 μM BrdU for 2 hours, then collected by centrifugation. Cells were subsequently washed, fixed, and then stained for BrdU and total DNA (7-AAD). BrdU incorporation and cell cycle analysis were analyzed by flow cytometry at the Dana Farber Cancer Institute on a BD Fortessa Analyzer. Data was then analyzed using FCS Express 4 software.
FIGS. 1A, 1B, 1C and 1D are single-cell scatter plots and show BrdU versus 7-AAD for Z138 cells treated with no drug (FIG. 1A) or treated with 1 μM Compound 123 for 1 day (FIG. 1B), 2 days (FIG. 1C), or 3 days (FIG. 1D). Graphs showing cell count versus 7-AAD intensities are depicted below their corresponding scatter plots.

Z138 cells = experiment: MTT cell proliferation assay, Z138; assay type: cell-based; settings: Homo sapiens
How it was run: as §1

[1] = test system: Z-138 mantle cell lymphoma cancer xenograft; experiment: Z-138 mouse xenograft model; assay type: in vivo; settings: QDx5/week for 4 weeks, SCID mice with Z-138 tumors; for tumor growth (mean tumor volume): versus cyclophosphamide 80 mg/kg Days 1-3
Procedure: The oncological impact of selected substituted 2,3-dihydrobenzofuranyl compounds was tested using a Z-138 mantle cell lymphoma cancer xenograft model in SCID mice. SCID Mice were inoculated s.c. in both flanks with 5×10^6 Z-138 cells. When the tumors reached a mean size of between 100 and 200 mm^3, mice were randomly and prospectively divided. Tumor-bearing mice were treated with vehicle, cyclophosphamide (positive control) or Compound 123 on M-F (QDx5/week) for 4 weeks. Compound 123 was administered orally (PO) at initial doses of 30 and 100 mg/kg five times a week. Cyclophosphamide was given as a positive control at 80 mg/kg on Days 1-3. Animals' weights and conditions were recorded daily, and tumors were measured on Mondays-Wednesdays-Fridays.

HL-60 cells = experiment: MTT cell proliferation assay, HL-60; assay type: cell-based; settings: Homo sapiens, incubation approximately 64-72 hours
Procedure: (§2) The MTT cell proliferation assay was used to study the cytotoxic properties of the compounds. The assay was performed according to the method described by Roche Molecular Biochemicals, with minor modifications. The assay is based on the cleavage of the tetrazolium salt, MTT, in the presence of an electron-coupling reagent. The water-insoluble formazan salt produced must be solubilized in an additional step. Cells grown in a 96-well tissue culture plate were incubated with the MTT solution for approximately 4 hours. After this incubation period, a water-insoluble formazan dye formed. After solubilization, the formazan dye was quantitated using a scanning multi-well spectrophotometer (ELISA reader). […] The cells were seeded at 5,000-10,000 cells in each well of 96-well plate in 100 μL of fresh culture medium and were allowed to attach overnight. The stock solutions of the compounds were diluted in 100 μL cell culture medium to obtain eight concentrations of each test compound, ranging from 1 nM to 30 μM. […] All optical densities were measured at 490 nm using a Vmax Kinetic Microplate Reader (Molecular Devices). In most cases, the assay was performed in duplicate and the results were presented as a mean percent inhibition to the negative control±SE. The following formula was used to calculate the percent of inhibition: Inhibition (%)=(1-(ODo/OD)) ×100. […]

HEP 3B cells = experiment: MTT cell proliferation assay, HEP 3B; assay type: cell-based; settings: Homo sapiens, Hep3B, incubation approximately 64-72 hours
Procedure: (§3) The MTT cell proliferation assay was used to study the cytotoxic properties of the compounds. The assay was performed according to the method described by Roche Molecular Biochemicals, with minor modifications. The assay is based on the cleavage of the tetrazolium salt, MTT, in the presence of an electron-coupling reagent. The water-insoluble formazan salt produced must be solubilized in an additional step. Cells grown in a 96-well tissue culture plate were incubated with the MTT solution for approximately 4 hours. After this incubation period, a water-insoluble formazan dye formed. After solubilization, the formazan dye was quantitated using a scanning multi-well spectrophotometer (ELISA reader). […] The cells were seeded at 5,000-10,000 cells in each well of 96-well plate in 100 μL of fresh culture medium and were allowed to attach overnight. The stock solutions of the compounds were diluted in 100 μL cell culture medium to obtain eight concentrations of each test compound, ranging from 1 nM to 30 μM. […] All optical densities were measured at 490 nm using a Vmax Kinetic Microplate Reader (Molecular Devices). In most cases, the assay was performed in duplicate and the results were presented as a mean percent inhibition to the negative control±SE. The following formula was used to calculate the percent of inhibition: Inhibition (%)=(1-(ODo/OD)) ×100.
(§4) The M24 cell line is derived from human melanoma cells. The U2OS cell line is a human osteosarcoma cell line expressing wild type p53 and Rb, but lacking p16. The MM1S cell line is a multiple myeloma cell line; the parent cell line, MM.1, was established from peripheral blood of a multiple myeloma patient who had become resistant to steroid-based therapy. The RPMI8226 cell line is derived from human B lymphocyte cells. NHDF cells are normal human dermal fibroblast cells. The MRC-5 cell line is derived from normal lung tissue of a fetus. The LN18 cell line is a human malignant glioma cell line. The DU-145 cell line is a human prostate cancer cell line. A549 cells are human adenocarcinomic human alveolar basal epithelial cells. […]

NHDF cells = experiment: MTT cell proliferation assay, NHDF; assay type: cell-based; settings: Homo sapiens, incubation approximately 64-72 hours
Procedure: as §2

[2] = test system: PAK4 interactors and downstream proteins; experiment: Immunoblots of PAK4 interactors and downstream proteins in U2OS cells; assay type: cell-based, human; settings: 72 hours
Procedure: Immunoblots were used to measure the effects of exemplary compounds on protein steady-state levels and phophorylation of PAK4 interactor and downstream proteins. Specifically, U2OS (osteosarcoma) cells were split and plated on day 1. After overnight attachment to the tissue culture plate, cells were treated with either DMSO (0), 37 nM, 111 nM, 333 nM, 1 μM, or 3 μM Compound 246 for 72 hours. Cells were collected, washed and lysed in RIPA buffer. After obtaining the protein concentration by BCA assay, lysates were boiled in loading buffer and run on SDS-PAGE. The gels were transferred to nitrocellulose membranes and blotted with antibodies raised against phosphor-PAK4, PAK4, phophos-beta-catenin, beta-catenin, GEF-H1, phospho-Akt, Akt, phospho-ERK1/2, ERK1/2, phospho-cofilin, cofilin, phospho-histone H3, histone H3, cyclin D1, Mcl-1, Bcl-2, p21, survivin, caspase 8, caspase 3, PARP, and beta-actin (loading control).
In another experiment, U2OS (osteosarcoma) cells were split and plated on day 1. After overnight attachment to the tissue culture plate, cells were treated with DMSO (Ct), 0.5 μM, or 5 μM of Compound 124, 369, 226, 246, or 907 for 72 hours. Cells were collected, washed and lysed in RIPA buffer. After obtaining the protein concentration by BCA assay, lysates were boiled in loading buffer and run on SDS-PAGE. The gels were transferred to nitrocellulose membranes and blotted with antibodies raised against phophos-beta-catenin, cyclin D1, PAK4, phospho-cofilin, and beta-actin (loading control).

Hep G2 cells = experiment: MTT cell proliferation assay, Hep G2; assay type: cell-based; settings: Homo sapiens, HepG2, incubation approximately 64-72 hours
Procedure: as §3
The M24 cell line is derived from human melanoma cells. The U2OS cell line is a human osteosarcoma cell line expressing wild type p53 and Rb, but lacking p16. The MM1S cell line is a multiple myeloma cell line; the parent cell line, MM.1, was established from peripheral blood of a multiple myeloma patient who had become resistant to steroid-based therapy. The RPMI8226 cell line is derived from human B lymphocyte cells. NHDF cells are normal human dermal fibroblast cells. The MRC-5 cell line is derived from normal lung tissue of a fetus. The LN18 cell line is a human malignant glioma cell line. The DU-145 cell line is a human prostate cancer cell line. A549 cells are human adenocarcinomic human alveolar basal epithelial cells. The MOLT4 cell line is a human acute lymphoblastic leukemia cell line. The THP1 cell line is a human leukemic monocytic cell line derived from peripheral blood. The OCIAML5 cell line is a human acute myeloid leukemia cell line. The MDA-MB-231 cell line is a human breast adenocarcinoma cell line. The MDA-MB-468 cell line is a human breast carcinoma cell line. HL-60 cells are human promyelocytic leukemia cells. Hep G2 cells are human hepatocellular carcinoma cells. HEP 3B cells are human hepatocellular carcinoma cells. The DLD-1 cell line is a colorectal adenocarcinoma cell line. The HCT-15 cell line is a human colon carcinoma cell line. The Colo-205 cell line is derived from a human adenocarcinoma of the colon. […]

M24 cell line = experiment: MTT cell proliferation assay, M24; assay type: cell-based; settings: Homo sapiens, incubation approximately 64-72 hours
Procedure: as §2

MM1S cell line = experiment: MTT cell proliferation assay, MM1S; assay type: cell-based; settings: Homo sapiens, MM1.S, incubation approximately 64-72 hours
Procedure: as §3, §4

RPMI8226 cell line = experiment: MTT cell proliferation assay, RPMI8226; assay type: cell-based; settings: Homo sapiens, RPMI-8226, incubation approximately 64-72 hours
Procedure: as §2

U2OS cell line = experiment: MTT cell proliferation assay, U2OS; assay type: cell-based; settings: Homo sapiens, incubation approximately 64-72 hours
Procedure: as §2

[3] = MS751, MS751 cells, approximately 64-72 hours incubation, read-out: MTT Assay IC50, MS751
[4] = NIH3T3, 3T3 cells, approximately 64-72 hours incubation, read-out: MTT Assay IC50, 3T3
[5] = Z-138, Z138 cells, approximately 64-72 hours incubation, read-out: MTT Assay IC50, Z138

## CC(=O)c1ccc(-c2cc(Cl)c3c(c2)CC(CNC(=O)/C=C/c2cccnc2)O3)s1 (single isomer, unassigned) [Compound 123, (E)-N-((5-(5-acetylthiophen-2-yl)-7-chloro-2,3-dihydrobenzofuran-2-yl)methyl)-3-(pyridin-3-yl)acrylamide]
MS751 cells; MS751, MS751 cells, eight concentrations 1 nM to 30 μM, incubation approximately 64-72 hours, read-out: MTT Assay IC50, MS751
  IC50: < 100 nM
3T3 cells; NIH3T3, 3T3 cells, eight concentrations 1 nM to 30 μM, incubation approximately 64-72 hours, read-out: MTT Assay IC50, 3T3
  IC50: 100 to 5000 nM
Z-138 cells
  G1: no change
  G2/M: increased
  S phase: significant decrease
  sub-G1 fraction: small increase
Z138 cells; Z-138, Z138 cells, eight concentrations 1 nM to 30 μM, incubation approximately 64-72 hours, read-out: MTT Assay IC50, Z138
  IC50: < 100 nM
[1]; 30 mg/kg PO
  tumor growth (mean tumor volume): inhibited tumor growth with an efficacy better than that of cyclophosphamide
[1]; 100 mg/kg PO
  tumor growth (mean tumor volume): inhibited tumor growth with an efficacy similar to cyclophosphamide
[1]; 30 and 100 mg/kg PO
  tolerability (mean percent weight change): tolerated at both doses

## Nc1ccc(/C=C/C(=O)NCC2Cc3cc(-c4ccc(C(=O)N5CCNCC5)cc4)cc(Cl)c3O2)cn1 (stereo not drawn) [Compound 246, (E)-3-(6-aminopyridin-3-yl)-N-((7-chloro-5-(4-(piperazine-1-carbonyl)phenyl)-2,3-dihydrobenzofuran-2-yl)methyl)acrylamide dihydrochloride]
HL-60 cells
  IC50: 100 to 5000 nM
MS751 cells; MS751, read-out: MTT Assay IC50, MS751
  IC50: < 100 nM
3T3 cells; NIH3T3, read-out: MTT Assay IC50, 3T3
  IC50: 100 to 5000 nM
HEP 3B cells
  IC50: < 100 nM
NHDF cells
  IC50: 100 to 5000 nM
Z138 cells; Z-138, read-out: MTT Assay IC50, Z138
  IC50: < 100 nM
[2]; 37 nM to 3 μM
  PAK4 total protein: decrease
  cleavage of apoptosis markers caspase 3, caspase 8 and PARP: increases in cleavage
  phosphorylation or total level of PAK4 signaling proteins (Akt, ERK1/2, beta-catenin, cofilin, p21, cyclin D1): decrease in phosphorylation or the total level
[2]; 0.5 μM or 5 μM
  PAK4 total protein: decrease
  phosphorylation of PAK4 signaling proteins beta-catenin and cofilin: decreases in phosphorylation
Hep G2 cells
  IC50: 100 to 5000 nM
M24 cell line
  IC50: 100 to 5000 nM
MM1S cell line
  IC50: < 100 nM
RPMI8226 cell line
  IC50: 100 to 5000 nM
U2OS cell line
  IC50: < 100 nM

## CC(=O)c1ccc(-c2cc(Cl)c3c(c2)CC(CNC(=O)CCc2cccnc2)O3)s1 (stereo not drawn) [Compound 369, N-((5-(5-Acetylthiophen-2-yl)-7-chloro-2,3-dihydrobenzofuran-2-yl)methyl)-3-(pyridin-3-yl)propanamide]
MS751 cells; [3]
  IC50: 100 to 5000 nM
3T3 cells; [4]
  IC50: 5000 to 30000 nM
Z138 cells; [5]
  IC50: 100 to 5000 nM
[2]; 0.5 μM or 5 μM
  PAK4 total protein: decrease
  phosphorylation of PAK4 signaling proteins beta-catenin and cofilin: decreases in phosphorylation

## Nc1ccc(CNC(=O)/C=C/C2Cc3cc(-c4ccc(C(=O)N5CCOCC5)cc4)cc(Cl)c3O2)cn1 (stereo not drawn) [Compound 907, (E)-N-((6-aminopyridin-3-yl)methyl)-3-(7-chloro-5-(4-(morpholine-4-carbonyl)phenyl)-2,3-dihydrobenzofuran-2-yl)acrylamide hydrochloride]
MS751 cells; [3]
  IC50: < 100 nM
3T3 cells; [4]
  IC50: 5000 to 30000 nM
Z138 cells; [5]
  IC50: < 100 nM
[2]; 0.5 μM or 5 μM
  PAK4 total protein: decrease
  phosphorylation of PAK4 signaling proteins beta-catenin and cofilin: decreases in phosphorylation
